Measurements from patent publication US20220249679A1 (Mitsubishi Tanabe Pharma Corporation, priority 2018, published 2022).

Legend:
cyno CD138 = experiment: FACS binding to Expi293 cells transfected with cyno CD138; design: species or system cynomolgus monkey; settings: 3-fold dilutions from 33.3 μg/mL
Procedure: (§1) 12P16F6 hIgG1 or 13P30A7 hIgG1 were tested for cross-reactivity to cynomolgus monkey CD138. Antibodies that cross-react with CD138 from cynomolgus monkey (cyno) have an advantage that they can be tested for toxicity in this strain of non-human primate prior to conducting efficacy trials. Briefly, a vector directing the cell-surface expression of human CD138 or cyno CD138 was transfected in Expi293 cells. Binding of 12P16F6 hIgG1 and 13P30A7 hIgG1 to transfected Expi293 cells was tested at 3-fold dilutions starting at 33.3 μg/mL.

human CD138 = target: T1, human CD138 (Homo sapiens, UniProt P18827); experiment: FACS binding to Expi293 cells transfected with human CD138; settings: 3-fold dilutions from 33.3 μg/mL
T1 sequence (P18827 23-310): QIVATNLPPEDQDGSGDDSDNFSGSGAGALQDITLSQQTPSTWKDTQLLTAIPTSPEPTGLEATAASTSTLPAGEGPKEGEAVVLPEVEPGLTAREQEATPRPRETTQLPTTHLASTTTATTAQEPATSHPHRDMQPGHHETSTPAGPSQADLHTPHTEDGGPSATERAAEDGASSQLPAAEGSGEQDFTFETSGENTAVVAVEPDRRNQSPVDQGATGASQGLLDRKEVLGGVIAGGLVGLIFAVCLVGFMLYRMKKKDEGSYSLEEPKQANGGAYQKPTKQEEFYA
Procedure: as §1

cyno CD138, sequence (as listed by the source): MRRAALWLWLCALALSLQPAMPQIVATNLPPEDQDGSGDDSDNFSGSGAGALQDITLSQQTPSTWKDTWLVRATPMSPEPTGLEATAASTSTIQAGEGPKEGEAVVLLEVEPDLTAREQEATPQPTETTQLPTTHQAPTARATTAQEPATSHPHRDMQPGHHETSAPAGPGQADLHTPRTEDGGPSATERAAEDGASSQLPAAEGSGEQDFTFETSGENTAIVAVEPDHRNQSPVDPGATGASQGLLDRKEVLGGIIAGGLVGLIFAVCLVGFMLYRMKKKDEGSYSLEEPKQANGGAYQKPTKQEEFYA

Question: Secukinumab [reference compound] was tested. Which “binding to cynomolgus CD138 expressing cells” value (cyno CD138) did it give?
Answer: little or no specific binding

Question: And the “binding to human CD138 expressing cells” value (human CD138)?
Answer: little or no specific binding
